Source: the supplement of paper PMC3974653
Structures can show the parent of a compound that is named as a salt.

Test system: MTT (mouse pheochromocytoma)
Assay: IC50 of cell viability (ATP content)
Conditions: (24 or 48 h)
Method in brief: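 After overnight culture at 37°C, 5% CO2 in white 1536-well plates, MTT mouse pheochromocytoma cells were given 23 nl of library compound in DMSO by pintool across 8 concentrations, spanning final 0.5 nM to 46 µM. Following 24 or 48 hrs, CellTiter-Glo luminescence was read after 15 minutes and normalised against positive-control (100%) and DMSO (0%) wells. A four-parameter logistic model provided the IC50.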

Compound | IC50 of cell viability [µM]
CCCCCCCCCCCC(=O)OCC(O)CO (stereo not given) [GLYCEROL MONOLAURATE] | > 46
CC(=O)OC\C1=C(\[N@]2[C@@H](SC1)[C@H](N)C2=O)C(O)=O [Cephalosporanic acid, 7-amino] | > 46
CN1[C@@H]2CC[C@@H]1CC(OC(=O)[C@H](CO)c1ccccc1)C2 (stereo not given in full) [ATROPINE] | > 46
Oc1ccnc(O)n1 [URACIL] | > 46
CC(=O)[C@@]1(O)CC[C@H]2[C@@H]3C=C(Cl)C4=CC(=O)CC[C@]4(C)[C@H]3CC[C@@]21C [Chlormadinone] | > 46
C1N2CN3CN1CN(C2)C3 [3-0760 Hexamethylenetetramine] | > 46
CC(=O)Nc1cc([As](=O)(O)O)ccc1O [ACETARSOL] | > 46
CCC1(c2ccccc2)C(=O)NC(=O)N(C(=O)c2ccccc2)C1=O (stereo not given) [Benzobarbital] | > 46
Nc1ccc([N+](=O)[O-])cc1 [4-Nitroaniline] | > 46
NC(=O)c1ncn(C2OC(CO)C(O)C2O)c1N (stereo not given) [AICAR] | > 46
O=C1NCN(c2ccccc2)C12CCN(CCCOc1ccc(F)cc1)CC2 [AMI-193] | > 46
C[N+](C)(C)CCOC(N)=O [CARBAMYLCHOLINE] | > 46
CC1(C(=O)O)CCC2(C)CCC3(C)C(=CC(=O)C4C5(C)CCC(O)C(C)(C)C5CCC43C)C2C1 (stereo not drawn) [18ALPHA-GLYCYRRHETINIC ACID] | > 46
CC(=O)OCC(=O)Nc1cc(C#N)cc(NC(=O)COC(C)=O)c1Cl [Acreozast] | > 46
CC(C)C[C@@H](NC(=O)[C@@H](COC(C)(C)C)NC(=O)[C@H](Cc1ccc(O)cc1)NC(=O)[C@@H](CO)NC(=O)[C@@H](Cc1c[nH]c2ccccc12)NC(=O)[C@@H](Cc1c[nH]cn1)NC(=O)[C@@H]1CCC(=O)N1)C(=O)N[C@H](CCCNC(=N)N)C(=O)N1CCC[C@H]1C(=O)NNC(N)=O [GOSERELIN ACETATE] | > 46
NCCc1c[nH]cn1 [HISTAMINE] | > 46
Cc1noc(N[S+](=O)([O-])c2ccc(N)cc2)c1C [Sulfisoxazole diolamine] | > 46
Nc1ccc([As](=O)(O)O)cc1 [Arsanilic acid] | > 46
CC(=O)Oc1ccccc1C(=O)O [Acetylsalicylic acid] | > 46
C[N+]1(C)CCC(OC(=O)C(O)(c2ccccc2)C2CCCC2)C1 (stereo not given) [Glycopyrrolate bromide] | > 46
CC(=O)OCC(=O)[C@@]1(O)CCC2C3C[C@H](C)C4=CC(=O)C=CC4(C)C3C(O)CC21C (stereo not given in full) [Methylprednisolone acetate] | > 46
COc1cc2c(cc1OC)C(=O)C(CC1CCN(Cc3ccccc3)CC1)C2 (stereo not given) [DONEPEZIL HYDROCHLORIDE] | > 46

Compound | IC50 of cell viability [µM]
CNC1C(O)C(OC2C(N)CC(N)C(OC3OC(CN)=CCC3N)C2O)OCC1(C)O (stereo not given) [PENTISOMICINUM] | > 46
CC(C)COCC(CN(Cc1ccccc1)c1ccccc1)N1CCCC1 (stereo not given) [BEPRIDIL] | > 46
CCCCc1oc2ccc(N[S+](C)(=O)[O-])cc2c1C(=O)c1ccc(OCCCN(CCCC)CCCC)cc1 [Dronedarone] | > 46
C[C@]\12CCC(=O)\C=C1CCC3C4CC[C@](O)(C(=O)CO)[C@]4(C)CC(=O)C23 (stereo not given in full) [CORTISONE] | > 46
CCc1ncnc2cc(OC)c(OC)cc12 [Quazodine] | > 46
CC(C)OC(=O)c1cc(C(=O)OC(C)C)cc([N+](=O)[O-])c1 [Nitrothal-isopropyl] | > 46
CCC(=O)[N-]S(=O)(=O)c1ccc(-c2c(-c3ccccc3)noc2C)cc1 [Parecoxib sodium] | > 46
O=C(O)c1ccc(N[C@@H]2OC[C@@H](O)[C@@H](O)[C@@H]2O)cc1 [Benaxibine] | > 46
CC(C)(C)CC(C)(C)c1ccc(OCCO)cc1 [Triton X-100] | > 46
O=C1NCN(c2ccccc2)C12CCN(CC1COc3ccccc3O1)CC2 (stereo not given) [SPIROXATRINE] | > 46
CCOC(C)=O [Ethyl acetate] | > 46
Cl.CN\1CCC\N=C1COC(=O)C(O)(C2CCCCC2)C3=CC=CC=C3 (stereo not given) [OXYPHENCYCLIMINE HYDROCHLORIDE] | > 46
CCCCN1CCCC1C(=O)Nc1c(C)cc(C)cc1C (stereo not given) [BUMECAINUM] | > 46
O=C(O)CCNC(=O)c1ccccc1 [BETAMIPRON] | > 46
CCCN(CCc1cccs1)[C@H]1CCc2c(O)cccc2C1 [ROTIGOTINE] | > 46
CCOC(=O)c1ccc(O)cc1 [Ethylparaben] | > 46
C=CC1CN2CCC1CC2[C@@H](O)c1ccnc2ccc(OC)cc12 (stereo not given in full) [QUINIDINE GLUCONATE] | > 46
CC(C)CC(N(C)C)C1(c2ccc(Cl)cc2)CCC1.Cl (stereo not given) [SIBUTRAMINE HYDROCHLORIDE] | > 46
CN1CCN(C(c2ccccc2)c2ccccc2)CC1 [Cyclizine hydrochloride] | > 46
CCNC(=O)NCCCOc1cccc(CN2CCCCC2)c1 [DALCOTIDINE] | > 46
Cc1cc(N)c2cc(NC(=O)Nc3ccc4nc(C)cc(N)c4c3)ccc2n1 [AMINOQUINURIDUM] | > 46
O=C1CN(/N=C/c2ccc(-c3ccc([N+](=O)[O-])cc3)o2)C(=O)N1 [DANTROLENE] | > 46

Compound | IC50 of cell viability [µM]
C#C[C@]1(O)CC[C@H]2[C@@H]3CCC4=CC(=O)CC[C@@H]4[C@H]3CC[C@@]21CC [Levonorgestrel] | > 46
CC(C)CCC[C@@H](C)[C@H]1CC[C@H]2[C@@H]3CC[C@@H]4C[C@H](O)CC[C@]4(C)[C@H]3CC[C@]12C [EPIDIHYDROCHOLESTERIN] | > 46
CCOC(=O)c1ccc(OC(=O)CCCCCNC(=N)N)cc1.C[S+](=O)([O-])O [Gabexate mesilate] | > 46
Cc1c(O)cccc1C(=O)N[C@@H](CSc1ccccc1)[C@H](O)CN1C[C@H]2CCCC[C@H]2C[C@H]1C(=O)NC(C)(C)C [Nelfinavir Mesylate] | > 46
CCOC(CN1CCN(CC(C)C(=O)c2ccccc2)CC1)c1ccccc1 (stereo not given) [EPRAZINONE HYDROCHLORIDE] | > 46
Nc1ccncc1N [3,4-DIAMINOPYRIDINE PHOSPHATE] | > 46
O=C(O)c1ccccc1OP(=O)(O)O [FOSFOSAL] | > 46
O=C1OC2(c3ccccc31)c1cc(I)c(O)c(I)c1Oc1c2cc(I)c(O)c1I [Erythrosin B] | > 46
CC(=O)OC[C@H]1O[C@@H](O[C@H]2[C@H](O)[C@@H](OC(=O)c3ccccc3C(=O)O)[C@H](O)O[C@@H]2COC(C)=O)[C@H](O)[C@@H](OC(=O)c2ccccc2C(=O)O)[C@@H]1O [Cellulose Acetate Phthalate] | > 46
CCCCC1C(=O)N(c2ccccc2)N(c2ccccc2)C1=O [Phenylbutazone] | > 46
CCCCC(CC)COC(=O)c1ccccc1O (stereo not given) [Octisalate] | > 46
CCN1\C=C(\C(O)=O)C(=O)C2=CC=C(C)N=C12 [Nalidixic acid] | > 46
CCCN(CCC)CCc1c[nH]c2ccccc12 [N,N-Dipropyltryptamine] | > 46
CC1CCC(C(C)C)C(=O)C1 (stereo not given) [MENTHONE] | > 46
CC1=NN(c2ccccc2)C(=O)C1 [1-Phenyl-3-methyl-5-pyrazolone] | > 46
CC[N+](C)(C)Cc1ccccc1Br.Cc1ccc(S(=O)(=O)[O-])cc1 [Bretylium tosylate] | > 46
C[S+](C)CC[C@H](N)C(=O)O [METHYLMETHIONINE SULFONIUM CHLORIDE] | > 46
c1ccc(-c2nc[nH]c2-c2ccccc2)cc1 [DIPHENYLIMIDAZOLE] | > 46
OC[C@@H]1O[C@H](C[C@@H]1O)N2\C=C(\I)C(=O)NC2=O [Idoxuridine] | > 46
CN(C)CCC=C1C2=C(C=CC=C2)\C=C/C3=C1C=CC=C3 [Flexeril] | > 46
Cc1cc(C)cc(C(=O)OC2CC3CCC(C2)N3C)c1 (stereo not given) [TROPANYL 3,5-DIMETHYLBENZOATE] | > 46
